Columns and labels:
acute hippocampal slices = assay: [3H]Glutamate and endogenous glutamate release from acute hippocampal slices; assay type: cell-based, mouse
Procedure: The [^3H]Glu release experiments were conducted using the method described in our previous papers. Briefly, the mice were anaesthetized under light CO2 inhalation, and subsequently decapitated. The hippocampus was dissected from each mouse in ice-cold Krebs solution saturated with 95% O2 and 5% CO2, sectioned (400-µm-thick slices) using a McIlwain tissue chopper and incubated in 1 ml of modified Krebs solution (113 mM NaCl, 4.7 mM KCl, 2.5 mM CaCl2, 1.2 mM KH2PO4, 1.2 mM MgSO4, 25.0 mM NaHCO3, and 11.5 mM glucose), pH 7.4, in the presence of 5 µCi/ml [^3H]glutamic acid ([^3H]Glu, 9.8×10^−8 M, specific activity 51 Ci/mmol; Perkin Elmer) for 45 min. The medium was bubbled with 95% O2 and 5% CO2 and maintained at 32°C. After loading, the slices were continuously superfused with 95% O2 and 5% CO2-saturated modified Krebs solution (flow rate: 0.7 ml/min).
Subsequently, the perfused samples were collected over a 3-min period and measured for tritium content. At 6 min after the start of the collection, the slices were subjected to a 6-min perfusion of the agonist (ATP) at various concentrations (1, 3, 6 and 10 mM) and then changed to normal Krebs solution until the end of the collection period. In some experiments, the P2X1 receptor antagonist, NF449 (100 nM), or the selective P2rx7 antagonist Brilliant blue G (100 nM) was applied to the perfusion solution at 15 min before the beginning of the ATP perfusion.
The radioactivity released from the preparations was measured using a Packard 1900 Tricarb liquid scintillation spectrometer, using Ultima Gold Scintillation cocktail. The release of tritium was expressed as a percentage of the amount of radioactivity in the tissue at the sample collection time (fractional release). The tritium uptake in the tissue was determined as the sum of release+the tissue content after the experiment and expressed in Bq/g. For the evaluation of the basal tritium outflow the fractional release measured in four consecutive 3 min samples under drug free conditions were taken into account. The ATP-induced [^3H]Glu efflux calculated as the net release in response to the respective stimulus by subtracting the release before the stimulation from the values measured after stimulation. Selected samples collected under resting conditions and during the peak of the ATP-evoked response were subjected to further HPLC analyses.
The separation of pre-column dansylated amino acids was performed using a gradient elution-working mode at ambient temperature. The mobile phase A consisted of 5/95 (v/v) 78/22 acetonitrile/methanol in 15 mM ammonium formate buffer, and the mobile phase B was composed of 90/10 (v/v 78/22) acetonitrile/methanol in ammonium formate buffer, pH 3.7. The mobile phase B increased linearly (at 0.11 min to 50% 17 min to 72% and 26 min to 100%, followed by a final run to 54 min), the flow rate was 0.7 ml/min. The analytical and the trap column were equilibrated for 10 min, and enrichment and clean-up procedures were performed. The dansylated derivatives were detected using an absorbance detector (Agilent 1100) at a 319 nm wavelength. The retention time of the dansylated Glu was 11.4 min. Pre-column derivatization was performed by mixing 50 µl of dansyl chloride prepared by dissolving 5 mg 5-(dimethylamino)naphthalene-1-sulfonyl chloride in acetonitrile daily and adding 50 µl of 2 M sodium carbonate, which contained norvaline (20 µM) as an internal standard in 25 µl of sample. After a 10-min reaction time at 60°C, the mixture was acidified using 25 µl of 6 M formic acid and injected onto the “trap-column”.

[1] = tested on: P2rx7+/+ and P2rx7−/− mice; assay: Sucrose preference test (SPT), LPS-induced anhedonia; assay type: in vivo, mouse; settings: for inhibitory effect on LPS-induced anhedonia in P2rx7−/− mice: acute treatment; for effect on LPS-induced anhedonia in P2rx7−/− mice: subacute 4-day treatment, compared with P2rx7+/+
Procedure: The experiments were performed using the two-bottle sucrose preference paradigm. The decreased preference for sucrose vs. water in this test has been proposed to reflect impaired sensitivity towards reward and to model anhedonia. Mice were offered a choice of 2% sucrose solution or water during 12-hour nocturnal periods (starting at 19∶00). The bottles were weighed before and after each test session to monitor sucrose and water consumption. The relative position of the sucrose and water bottles were swapped every night to avoid place preferences. The baseline sucrose intake was measured under a habituation period of 3–4 days before administering the treatments, and the mean volume ingested over the last 3 training sessions was used as a baseline value. The sucrose consumption was measured for 4 consecutive nights after LPS (0.2 mg/kg i.p.) or saline administration and expressed as g/100 g body weight or as a percentage of the baseline (%).

[2] = tested on: BDNF level in hippocampal slices; assay: BDNF protein assay (ELISA), in vitro study in hippocampal slices; assay type: cell-based, mouse; settings: for effect on the inhibitory effect of BzATP on BDNF level / effect on basal BDNF level, compound alone (no BzATP): CNQX 10 µM, TCN-201 10 µM; for effect on the inhibitory effect of BzATP on BDNF level / effect on basal BDNF level, compound alone (no BzATP) / BDNF level in hippocampal slices in the presence of BzATP: RO-256981 3 µM, MCPG 200 µM; for BDNF level in hippocampal slices in the presence of BzATP: + BzATP 100 µM, BBG 100 nM, DHPG 100 µM; for BDNF level in hippocampal slices, compound alone: RO-256981 3 µM 15 min, DHPG 100 µM 10 min
Procedure: The P2rx7 wild type and knockout mice were anesthetized under light CO2 inhalation and decapitated. The hippocampus was dissected in ice-cold Krebs solution saturated with 95% O2 and 5% CO2, sectioned (400 µm thick slices) using a McIlwain tissue chopper and incubated in 2 ml of modified Krebs solution in the presence of 1 ml Hibernate medium, ascorbic acid (300 µM) and Na2EDTA (30 µM) for 60 min. The medium was bubbled continuously with 95% O2 and 5% CO2 and maintained at 37°C. The P2rx7 agonist, BzATP, was added to the incubation solution for 30 min, whereas BBG was applied 15 min before BzATP application. RO-256981, 6-cyano-7-nitroquinoxaline-2,3-dione (CNQX) and 3-Chloro-4-fluoro-N-[4[[2(phenylcarbonyl)hydrazino]carbonyl]benzyl] benzenesulfonamide (TCN-201) were applied for 15 min, while MCPG was administered for 30 min. The group I metabotropic glutamate receptor agonist, dihydroxyphenylglycine (DHPG), was administered for 10 min. The DHPG, MCPG, and RO-256981 dosages were chosen based on previous studies, [47], [48]. In the experiments with BzATP, Mg^2+ was omitted from the incubation solution. The hippocampal slices were collected, frozen on dry ice and stored at −70°C until further investigation. Each experimental group contained 3–4 mice.
At the time of analysis, the samples were removed from the freezer and weighed. The BDNF extraction procedure was performed in accordance with the methods of a previous study. For the BDNF assays, 2 ml lysis buffer (100 mM PIPES, pH 7, 500 mM NaCl, 0.2% Triton X-100, 0.1% NaN3, 2% BSA, 2 mM EDTA, 200 µM PMSF, 10 µg/mL aprotinin, 1 µg/mL leupeptin, and 0.5 mM sodium vanadate) was added to each sample, and the hippocampus was sonicated at power level 2 using pulses at 1 sec intervals for 10–15 sec. Subsequently, the samples were centrifuged at 16,000 × g for 30 min at 4°C. 100 µl aliquots of the resulting supernatants were removed and diluted with 400 µl of DPBS buffer (137 mM NaCl, 2.68 mM KCl, 1.47 mM KH2PO4, 8.1 mM Na2HPO4 (pH 7.35), 0.9 mM CaCl2·H2O, and 0.5 mM MgCl2·H2O). The supernatants were collected and stored at −70?C until further analysis. For the total free BDNF measurement, the samples were acid treated with 1 µl of 1 N HCl for each 50 µl of diluted samples to decrease the pH to 2.5, followed by incubation at room temperature for 15 min. The samples were neutralized with 1 µl of 1 N NaOH for each 50 µl of diluted samples. The levels of BDNF (both precursor and mature forms) expression were evaluated using an enzyme-linked immunosorbent assay (ELISA) kit and a BDNF Emax ImmunoAssay System (Promega Corporation, Madison, WI, USA), which is specific for mouse BDNF protein, according to the manufacturer’s instructions. The BDNF levels were calculated by plotting the optical density (OD) of each sample against the standard curve. A seven-point standard curve using two-fold serial dilutions in Reagent Diluent (according the manufacturer’s instructions) and a high standard of 500 pg/ml were used for the determination of BDNF levels. The assay detection limits were <15 pg/ml. Absorbance was measured at 450 nm using a Perkin-Elmer Victor 3V 1420 Multilabel Counter.

[3] = P2rx7+/+ slices, BzATP 100 µM 30 min, Mg2+-free

Nc1ncnc2c1ncn2[C@@H]1O[C@H](COP(=O)(O)OP(=O)(O)OP(=O)(O)O)[C@@H](O)[C@H]1O [ATP]
net release of tritium ([3H]Glu, fractional release) (acute hippocampal slices; P2rx7+/+ slices, 10 mM ATP, 6-min perfusion): 3.34±0.57% | endogenous glutamate level in effluent (HPLC) (acute hippocampal slices; P2rx7+/+ slices, 10 mM ATP, peak vs resting): remarkable elevation | efflux of [3H]Glu (acute hippocampal slices; P2rx7+/+ slices, 6-min perfusion, 1–10 mM): concentration-dependent increase | net [3H]Glu efflux (fractional release) (acute hippocampal slices; P2rx7−/− slices, 10 mM ATP): 0.25±0.43%

O=C(CC12CC3CC(CC(C3)C1)C2)Nc1cccc2nc(NCCNCCO)ccc12 [AZ-10606120]
amount of sucrose consumed on the 3rd day after LPS injection ([1]; P2rx7+/+ mice, acute injection 2 mg/kg i.p. 30 min before LPS, vs control): significantly higher | amount of sucrose consumed on the day after LPS injection ([1]; P2rx7+/+ mice, subacute treatment 2 mg/kg i.p., vs control): significantly higher | inhibitory effect on LPS-induced anhedonia in P2rx7−/− mice [1]: completely absent | effect on LPS-induced anhedonia in P2rx7−/− mice [1]: significantly attenuated

Nc1ncnc2c1ncn2[C@@H]1O[C@H](COP(=O)(O)OP(=O)(O)OP(=O)(O)O)[C@@H](OC(=O)c2ccc(C(=O)c3ccccc3)cc2)[C@H]1O [BzATP, 3′-O-(4-benzoyl-benzoyl)adenosine 5′-triphosphate]
BDNF level in hippocampal slices [2, 3]: 13.85 ± 0.98 pg/mL | decrease of basal BDNF level [2, 3]: 25.73% | effect on BDNF level ([2]; P2rx7−/− slices, BzATP 100 µM, Mg2+-free): without significantly affecting

N#Cc1cc2[nH]c(=O)c(=O)[nH]c2cc1[N+](=O)[O-] [CNQX, 6-cyano-7-nitroquinoxaline-2,3-dione]
effect on the inhibitory effect of BzATP on BDNF level ([2]; P2rx7+/+ slices, BzATP 100 µM): occluded | effect on basal BDNF level, compound alone (no BzATP) ([2]; P2rx7+/+ slices): decreased

NC(C(=O)O)c1cc(O)cc(O)c1 (stereo not shown) [DHPG, 3,5-dihydroxyphenylglycine]
BDNF level in hippocampal slices in the presence of BzATP ([2]; P2rx7+/+ slices, Mg2+-free): 54.14 ± 1.92 pg/mL | BDNF level in hippocampal slices, compound alone ([2]; P2rx7+/+ slices): 41.59 ± 0.40 pg/mL

CC(N)(C(=O)O)c1ccc(C(=O)O)cc1 (stereo not drawn) [MCPG, α-Methyl-4-carboxyphenylglycine]
BDNF level in hippocampal slices in the presence of BzATP ([2]; P2rx7+/+ slices, Mg2+-free): 6.09 ± 1.17 pg/mL | decrease of BDNF level in the presence of BzATP ([2]; P2rx7+/+ slices, BzATP 100 µM + MCPG 200 µM): 67.34% | effect on the inhibitory effect of BzATP on BDNF level ([2]; P2rx7+/+ slices, BzATP 100 µM): did not antagonize | effect on basal BDNF level, compound alone (no BzATP) ([2]; P2rx7+/+ slices): significantly diminished

O=C(Nc1cc(C(=O)Nc2ccc(S(=O)(=O)[O-])cc2S(=O)(=O)[O-])cc(C(=O)Nc2ccc(S(=O)(=O)[O-])cc2S(=O)(=O)[O-])c1)Nc1cc(C(=O)Nc2ccc(S(=O)(=O)[O-])cc2S(=O)(=O)[O-])cc(C(=O)Nc2ccc(S(=O)(=O)[O-])cc2S(=O)(=O)[O-])c1.[Na+].[Na+].[Na+].[Na+].[Na+].[Na+].[Na+].[Na+] [NF449, 4,4′,4′′,4′′′-[Carbonylbis(imino-5,1,3-benzenetriyl-bis(carbonylimino))]tetrakis-1,3-benzenedisulfonic acid, octasodium salt]
residual ATP-evoked [3H]Glu efflux in presence of antagonist (acute hippocampal slices; P2rx7−/− slices, ATP 10 mM, antagonist 100 nM 15 min before ATP): sensitive to inhibition

C[C@@H](CN1CCC(Cc2ccccc2)CC1)[C@@H](O)c1ccc(O)cc1.O=C(O)/C=C\C(=O)O [RO-256981, (αR,βS)-α-(4-Hydroxyphenyl)-β-methyl-4-(phenylmethyl)-1-piperidinepropanol maleate]
BDNF level in hippocampal slices in the presence of BzATP ([2]; P2rx7+/+ slices, Mg2+-free): 15.75 ± 0.44 pg/mL | effect on the inhibitory effect of BzATP on BDNF level ([2]; P2rx7+/+ slices, BzATP 100 µM): occluded | effect on basal BDNF level, compound alone (no BzATP) ([2]; P2rx7+/+ slices): decreased | BDNF level in hippocampal slices, compound alone ([2]; P2rx7+/+ slices): 15.20 ± 0.12 pg/mL

O=C(NNC(=O)c1ccc(CNS(=O)(=O)c2ccc(F)c(Cl)c2)cc1)c1ccccc1 [TCN-201, 3-Chloro-4-fluoro-N-[4[[2(phenylcarbonyl)hydrazino]carbonyl]benzyl] benzenesulfonamide]
effect on the inhibitory effect of BzATP on BDNF level ([2]; P2rx7+/+ slices, BzATP 100 µM): occluded | effect on basal BDNF level, compound alone (no BzATP) ([2]; P2rx7+/+ slices): unaffected

CN(C)CCCC1(c2ccc(F)cc2)OCc2cc(C#N)ccc21 (stereo not shown) [citalopram]
inhibitory effect on LPS-induced anhedonia in P2rx7−/− mice [1]: largely preserved | effect on LPS-induced anhedonia in P2rx7−/− mice [1]: largely preserved

Reference: article PMC3689833, “Neurochemical Changes in the Mouse Hippocampus Underlying the Antidepressant Effect of Genetic Deletion of P2X7 Receptors” (PLoS ONE, 2013)
